Results as given in ChEMBL document CHEMBL1151467, “Antimicrobial resistance genes associated with Salmonella enterica serovar newport isolates from food animals” (2008).
≈ marks a conversion by molar mass, not a printed value.

Columns and labels:
[1] = system: Salmonella enterica subsp. enterica; experiment: Antibacterial activity against blaCMY-expressing Salmonella enterica subsp. enterica serovar Newport isolated from food animals; type: functional
[2] = system: Salmonella enterica subsp. enterica; experiment: Antibacterial activity against susceptible Salmonella enterica subsp. enterica serovar Newport isolated from food animals; type: functional, organism-based
[3] = system: Salmonella enterica subsp. enterica; experiment: Antibacterial activity against aacC-expressing Salmonella enterica subsp. enterica serovar Newport isolated from food animals; type: functional, organism-based

Molecule | MIC [1] | MIC [2] | MIC [3]
CO/N=C(\C(=O)N[C@@H]1C(=O)N2C(C(=O)O)=C(CSc3nc(=O)c(O)nn3C)CS[C@H]12)c1csc(N)n1 [CEFTRIAXONE] | 16 mg/L (≈ 28.9 µM) | – | –
GENTAMICIN | – | < 0.25 mg/L | 1 mg/L
